Laboratory results: US20240390513A1, “PHARMACEUTICAL COMPOSITION FOR TREATING INFLAMMATORY DISEASES” (INDUSTRY FOUNDATION OF CHONNAM NATIONAL UNIVERSITY, priority 2021, published 2024)

System: HK-2 cells
Test: Cellular uptake (fluorescence microscope, FACS, ICP-MS)
Type: cell-based, human
Settings: 4 hours, non-ROS conditions
Description: For uptake studies, HK-2 cells (3×10^4 cells/well) were seeded onto Lab-Tek® Chamber Slides and cultured overnight. […] Untreated cells were used as a control. After incubation, the medium was aspirated, followed by performing DPBS wash and 4% paraformaldehyde (PFA) fixation. The cells were then counterstained with 4′,6-diamidino-2-phenylindole (DAPI). A fluorescence intensity of IR780 was analyzed by fluorescence microscope (Evos FL Auto 2, Thermo Fisher Scientific) to determine IR780 uptake by cells. To confirm the effect of ROS on intracellular distribution and release, ROS conditions were mimicked by treating the cells with 200 μM H2O2 for 2 hours or culturing the cells in a hypoxia chamber for 2 days before treatment. Cellular uptake was further quantified by flow cytometry. Briefly, 1×10^5 HK-2 cells/well were seeded in a 12-well plate and incubated overnight. The medium was aspirated, another sample was added and incubated for 4 hours. […] The cells were then re-suspended in FACS buffer containing 3% FBS, and fluorescence-activated cell sorting (FACS) was performed to determine the uptake capacity of each group. […] The cellular uptake of the final PTC-M nanocomposite was determined by ICP-MS analysis. […] Aqua regia (1 ml) was added to the final pellets for digestion, then the sample was diluted and analyzed for manganese content by ICP-MS. […]

## IR780 iodide
  cellular uptake (IR780 fluorescence, microscope): higher uptake rate regardless of nanomicelle loading
